Data from US20120271010A1, “HYDROPHILIC POLYMER COMPOUND HAVING ANTICOAGULATION EFFECT” (TORAY INDUSTRIES, INC., priority 2009, published 2012).

System: blood collected from a volunteer
Test: Measurement of whole blood clotting time (Sonoclot, ACT ONSET)
Parameters: species or system human
Description: The blood collected from a volunteer and citric acid were mixed at a volume ratio of 9/1 to prepare blood supplemented with citric acid.
In a cuvette (NON-ACTIVATED CLOTTING TEST KIT), 18 μL of physiological saline solution was placed, and 14.8 μL of calcicol was added thereto, followed by further adding 342 μL of blood supplemented with citric acid. Thereafter, the measurement using Sonoclot Blood Coagulation/Platelet Function Analyzer (IMI) was carried out to define the obtained ACT ONSET value as whole blood clotting time. The whole blood clotting time of the blood collected by volunteer was 545 seconds.

CC1CNc2c(cccc2S(=O)(=O)N[C@@H](CCCNC(=N)N)C(=O)N2CC[C@@H](C)C[C@@H]2C(=O)O)C1 (mixture of isomers) [argatroban, (2R,4R)-4-methyl-1-((2S)-2-{[(3RS)-3-methyl-1,2,3,4-tetrahydroquinolin-8-yl]sulfonyl}amino-5-guanidinopentanoyl)piperidin-2-carboxylic acid]
Whole blood clotting time (2 μM argatroban solution in place of physiological saline solution): 531 s
Whole blood clotting time (10 μM argatroban solution in place of physiological saline solution): 746 s
Whole blood clotting time (20 μM argatroban solution in place of physiological saline solution): 849 s
